Measured values published in patent publication US12643901B2, “Compounds” (The Provost, Fellows, Foundation Scholars, and the other …, priority 2020, dated 2026).

How the values were obtained:
RASFCs = assay: Synovial fibroblast assay, IL-6 ELISA; type: cell-based, human; details: RASFCs treated with TNF (10 ng/ml), 200 μm compound, supernatants at 72 hr, n=3, DMSO vehicle = 100%
Procedure: Synovial Fibroblast Assay
To assess the compounds in human rheumatoid arthritis samples the following protocol was employed:
Isolation of Primary Fibroblasts: RA synovial biopsies were digested with 1 mg/ml collagenase type 1 (Worthington Biochemical, Freehold, NJ, USA) in RPMI-1640 (Gibco-BRL, Paisley, UK) for 4 hr at 37° C. in humidified air with 5% CO2. Dissociated cells were grown to confluence in RPMI 1640, 10% FCS (Gibco-BRL), 10 ml of 1 mmol/l HEPES (Gibco-BRL), penicillin (100 units/ml; Bioscience), streptomycin (100 units/ml; Bioscience) and fungizone (0.25 μg/ml; Bioscience) before passaging. Cells were used between passages 3-8.
Compounds (200 μm) were tested on n=3 RASFCs
RASFCs were grown to 80% confluency in 48 well plates. RASFCs were treated with TNF (10 ng/ml) in the presence of 200 μm of each compound. Media was replaced after 24 h and fresh media and compound was added. Cell supernatants were collected at 72 hr time point. DMSO treated cells were used as a vehicle control (Red dotted line represents DMSO control).
IL-6 ELISA: Levels of pro-inflammatory cytokine IL6 were measured in cultured RASFC supernatants by specific ELISA (R&D systems, UK) according to manufacturer's conditions.
This assay measures the production of IL-6 as an indication of immune system activation: the lower the value the better from the point of view of alleviating RA symptoms. […]

[1] = target: T1, queuine-tRNA ribosyltransferase enzyme complex (hQTRT1:hQTRT2) (Homo sapiens, UniProt Q9BXR0); assay: [8-14C] guanine displacement assay (TGT substrate); type: biochemical; details: 50 μM compound, 30 mins at 37° C., ≥5% is considered a positive substrate for TGT
T1 construct: polyhistidine (N); made in house; host or cells: E. coli BL21(DE3) tgt::Kmr
Procedure: Compounds capable of acting as a queuine-tRNA ribosyltransferase enzyme complex substrate may be identified by use of a displacement assay as described below:
Production of [8-^14C] Guanine Labeled tRNA (tRNA*)
Before adding the 8-[^14C] guanine solution to the reaction the solution was neutralised with an equal volume (vol/vol) 0.01 M NaOH, as the [8-^14C] Guanine is supplied in 0.01 M HCl aqueous solution. In vitro synthesised human tyrosyl tRNA was prepared by T7 transcription in ultrapure nuclease-free water as described previously (Alqasem et al., 2020). Recombinant human QTRT1 enzyme containing an N-terminal polyhistidine tag and human QTRT2 containing a C-terminal TEV-Strep-Tag®II tag were produced in BL21(DE3) tgt::Kmr cells as described previously (Alqasem et al., 2020).
The reaction was incubated for 1 hour at 37° C. […] The tRNA* pellet was resuspended in 30 μL nuclease-free water and the concentration measured spectrophotometrically at A260. […]
After 30 mins the reactions were quenched by mixing with 2.5 ml ice-cold 10% trichloroacetic acid (TCA) and placed on ice for one hour to precipitate the tRNA. […] The vacuum manifold was disassembled, the filters recovered and dried again at room temperature before being placed in scintillation vials containing 10 ml of Ecoscint A and radioactivity levels measured by scintillation counting. […]

T1 sequence (Q9BXR0 whole entry): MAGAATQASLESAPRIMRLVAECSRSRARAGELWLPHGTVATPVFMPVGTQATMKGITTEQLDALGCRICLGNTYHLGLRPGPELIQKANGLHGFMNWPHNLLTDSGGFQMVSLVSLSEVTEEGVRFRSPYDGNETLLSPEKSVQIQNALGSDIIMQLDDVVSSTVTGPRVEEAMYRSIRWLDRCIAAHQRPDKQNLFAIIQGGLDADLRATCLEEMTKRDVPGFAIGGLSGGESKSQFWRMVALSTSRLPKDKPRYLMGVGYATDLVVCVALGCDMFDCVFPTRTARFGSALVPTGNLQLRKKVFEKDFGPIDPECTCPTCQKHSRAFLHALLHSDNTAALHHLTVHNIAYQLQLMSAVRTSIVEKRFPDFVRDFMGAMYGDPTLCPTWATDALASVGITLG
T1 sequence (Q9H974 whole entry partner): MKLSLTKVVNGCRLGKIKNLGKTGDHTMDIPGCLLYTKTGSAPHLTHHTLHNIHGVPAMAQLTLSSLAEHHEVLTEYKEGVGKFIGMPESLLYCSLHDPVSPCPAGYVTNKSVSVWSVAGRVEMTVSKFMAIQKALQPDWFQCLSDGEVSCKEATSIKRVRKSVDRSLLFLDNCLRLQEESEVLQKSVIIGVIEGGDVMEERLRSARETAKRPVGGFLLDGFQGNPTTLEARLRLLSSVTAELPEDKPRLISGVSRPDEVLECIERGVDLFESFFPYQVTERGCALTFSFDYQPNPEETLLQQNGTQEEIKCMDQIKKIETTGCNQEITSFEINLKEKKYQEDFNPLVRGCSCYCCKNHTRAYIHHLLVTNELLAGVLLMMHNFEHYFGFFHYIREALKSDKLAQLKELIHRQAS

Compound	Level of IL6 expression compared to vehicle (RASFCs)	displacement of the [14C] guanine [1]
Nc1nc2[nH]cc(/C=N/O)c2c(=O)[nH]1 [Example 4, 2-Amino-4-oxo-4,7-dihydro-3H-pyrrolo[2,3-d]pyrimidine-5-carbaldehyde oxime]	Reduction to 15%	–
C[C@@H]1CCN(C(=O)CC#N)C[C@@H]1N(C)c1ncnc2[nH]ccc12 [Tofacitinib, reference compound]	Reduction to 58%	–
CO/N=C/c1c[nH]c2nc(N)[nH]c(=O)c12 [Example 2, 2-Amino-4-oxo-4,7-dihydro-3H-pyrrolo[2,3-d]pyrimidine-5-carbaldehyde O-methyl oxime]	Reduction to 15%	–
Nc1nc2[nH]cc(CNOCCc3ccccc3)c2c(=O)[nH]1 [Example 1, 2-Amino-5-((phenethoxyamino)methyl)-3,7-dihydro-4H-pyrrolo[2,3-d]pyrimidin-4-one]	Reduction to 17%	–
Nc1nc2[nH]cc(CN[C@H]3C=C[C@H](O)[C@@H]3O)c2c(=O)[nH]1 [queuine base, queuine]	–	> 98%
